These results are taken from publication PMC11082923 (Journal of Agricultural and Food Chemistry, 2024).

Assay [1] has as its target T1, TAS2R16 (Homo sapiens, UniProt Q9NYV7).
T1 sequence (Q9NYV7 1-291): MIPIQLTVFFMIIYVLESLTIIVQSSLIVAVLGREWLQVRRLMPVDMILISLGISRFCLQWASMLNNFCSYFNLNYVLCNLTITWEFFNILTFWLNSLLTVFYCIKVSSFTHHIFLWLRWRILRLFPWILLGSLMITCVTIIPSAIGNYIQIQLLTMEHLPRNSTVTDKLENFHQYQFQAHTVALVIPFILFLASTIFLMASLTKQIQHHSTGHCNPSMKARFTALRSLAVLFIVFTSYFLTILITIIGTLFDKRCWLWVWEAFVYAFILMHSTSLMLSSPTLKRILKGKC
As to the kind of experiment: Fluo4-AM calcium imaging. Type of assay: cell-based.

Assay [2] has as its target T1, TAS2R16. As to the kind of experiment: Fluo4-AM calcium imaging. Type of assay: cell-based. The settings on record: agonist; C1 buffer with or without NaCl ([…] NMDG), pH […].

Read-outs that look alike come from different tables or passages of the source.

`OCc1ccccc1O[C@@H]1O[C@H](CO)[C@@H](O)[C@H](O)[C@H]1O` [D-salicin]: the EC50 on TAS2R16 [1] came out at 1280 ± 180 µM.

Turning to `O=Cc1ccccc1O[C@@H]1O[C@H](CO)[C@@H](O)[C@H](O)[C@H]1O` [Helicin], the EC50 entry on TAS2R16 [2] was “signal saturation of TAS2R16 was achieved with phenyl-βD-glucopyranoside and helicin”.

Consider `OC[C@H]1O[C@@H](Oc2ccccc2)[C@H](O)[C@@H](O)[C@@H]1O` [phenyl-βD-glucopyranoside], for which the EC50 result at TAS2R16 [2] was “signal saturation of TAS2R16 was achieved with phenyl-βD-glucopyranoside and helicin”.

What is called EC50 is the midpoint of the concentration-response curve.
